Results as given in PubChem BioAssay AID248 (DTP/NCI, 2004).
“And” between values parts separate entries of the source, which are not always exact repeats. Equal values may be shown once. Inconclusive results and toxic doses are left out. Rule as the data show it: active = T/C of 150% or more; inactive = T/C below 125%. Square brackets hold non-standard residues; d marks the D form. Peptide text beside a SMILES is read from it. * marks the point of attachment. ξ: configuration not given here. ξF = NC(Cc1ccccc1)C(=O)O; Cbz = O=C(OCc1ccccc1)*

Test system: L1210 leukemia ip in BDF1 mice, survival T/C
Experiment: NCI In Vivo Anticancer Drug Screen. Data for tumor model L1210 Leukemia (intraperitoneal) in B6D2F1 (BDF1) mice
Details: endpoint: mean survival time, higher = longer survival
Method in brief: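 Each compound was tested against a transplantable tumor grown in mice. The endpoint was survival, with treated animals benchmarked against vehicle controls as a simple ratio.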

[1] = dose: 100.0 mg/kg/injection, schedule: Q04DX002 (ip), vehicle: saline with Tween-80
[2] = dose: 200.0 mg/kg/injection, schedule: Q04DX002 (ip), vehicle: saline with Tween-80
[3] = dose: 400.0 mg/kg/injection, schedule: Q04DX002 (ip), vehicle: saline with Tween-80
[4] = dose: 100.0 mg/kg/injection, schedule: Q01DX009 (ip), vehicle: saline with Tween-80
[5] = dose: 100.0 mg/kg/injection, schedule: Q04DX003 (ip), vehicle: saline with Tween-80
[6] = dose: 200.0 mg/kg/injection, schedule: Q01DX009 (ip), vehicle: saline with Tween-80
[7] = dose: 200.0 mg/kg/injection, schedule: Q04DX003 (ip), vehicle: saline with Tween-80
[8] = dose: 400.0 mg/kg/injection, schedule: Q01DX009 (ip), vehicle: saline with Tween-80
[9] = dose: 100.0 mg/kg/injection, schedule: Q01DX009 (ip), vehicle: Klucel (hydroxypropylcellulose) (HPC)
[10] = dose: 200.0 mg/kg/injection, schedule: Q01DX009 (ip), vehicle: Klucel (hydroxypropylcellulose) (HPC)
[11] = dose: 100.0 mg/kg/injection, schedule: Q04DX003 (ip), vehicle: other
[12] = dose: 200.0 mg/kg/injection, schedule: Q04DX003 (ip), vehicle: other
[13] = dose: 400.0 mg/kg/injection, schedule: Q04DX003 (ip), vehicle: other
[14] = dose: 400.0 mg/kg/injection, schedule: Q04DX003 (ip), vehicle: saline with Tween-80
[15] = dose: 100.0 mg/kg/injection, schedule: Q01DX001 (ip), vehicle: Klucel (hydroxypropylcellulose) (HPC)
[16] = dose: 100.0 mg/kg/injection, schedule: Q01DX001 (ip), vehicle: saline
[17] = dose: 400.0 mg/kg/injection, schedule: Q01DX001 (ip), vehicle: saline

Measured: T/C

NCC1=NCCN1
inactive: dose: 25.0 mg/kg/injection, schedule: Q04DX002 (ip), vehicle: saline 93 % of control | dose: 50.0 mg/kg/injection, schedule: Q04DX002 (ip), vehicle: saline 97 % of control | dose: 100.0 mg/kg/injection, schedule: Q04DX002 (ip), vehicle: saline 101 % of control | dose: 200.0 mg/kg/injection, schedule: Q04DX002 (ip), vehicle: saline 93 % of control

CCCc1[nH]nc(C(=O)OC)c1N=NN(C)C
inactive: dose: 173.0 mg/kg/injection, schedule: Q01DX001 (ip), vehicle: other 110 % of control | dose: 266.0 mg/kg/injection, schedule: Q01DX001 (ip), vehicle: other 112 % of control | dose: 400.0 mg/kg/injection, schedule: Q01DX001 (ip), vehicle: other 115 % of control | dose: 600.0 mg/kg/injection, schedule: Q01DX001 (ip), vehicle: other 123 % of control

O=C(O)c1ccc([N+](=O)[O-])cc1O
inactive: dose: 100.0 mg/kg/injection, schedule: Q01DX001 (ip), vehicle: carboxymethylcellulose (CMC) 101 % of control | [1] 95 % of control | dose: 200.0 mg/kg/injection, schedule: Q01DX001 (ip), vehicle: carboxymethylcellulose (CMC) 97 % of control | [2] 98 % of control | [3] 102 % of control

CCOC(=O)c1ccc(NC(=S)NC(=O)C(C)Oc2ccccc2)cc1 (stereo unspecified)
inactive: dose: 100.0 mg/kg/injection, schedule: Q01DX001 (ip), vehicle: saline with Tween-80 102 % of control | [4] 92 % of control and 103 % of control | [1] 93 % of control and 106 % of control | [5] 93 % of control | dose: 200.0 mg/kg/injection, schedule: Q01DX001 (ip), vehicle: saline with Tween-80 94 % of control | [6] 99 % of control and 112 % of control | [2] 93 % of control and 106 % of control | [7] 93 % of control | dose: 400.0 mg/kg/injection, schedule: Q01DX001 (ip), vehicle: saline with Tween-80 108 % of control | [8] 97 % of control and 100 % of control | [3] 92 % of control and 93 % of control

CC1=CC2c3c([nH]c(=S)[nH]c3=O)OC(C)(C)C2CC1 (stereo unspecified)
inactive: dose: 50.0 mg/kg/injection, schedule: Q01DX009 (ip), vehicle: Klucel (hydroxypropylcellulose) (HPC) 99 % of control | [9] 96 % of control | [10] 96 % of control

CCC(=O)/C=C/c1ccc([N+](=O)[O-])cc1
inactive: [11] 101 % of control | [12] 93 % of control | [13] 93 % of control

O=[N+]([O-])C1(CO)COC(c2ccccc2)OC1 (stereo unspecified)
inactive: dose: 100.0 mg/kg/injection, schedule: Q01DX009 (ip), vehicle: water 91 % of control | [5] 111 % of control | dose: 200.0 mg/kg/injection, schedule: Q01DX009 (ip), vehicle: water 98 % of control | [7] 108 % of control | dose: 400.0 mg/kg/injection, schedule: Q01DX009 (ip), vehicle: water 92 % of control | [14] 95 % of control

Nc1nc(N)c(-c2ccc(Cl)c(Cl)c2)c(COc2ccc(CNS(=O)(=O)c3ccc(S(=O)(=O)F)cc3)cc2Cl)n1
inactive: dose: 25.0 mg/kg/injection, schedule: Q01DX001 (ip), vehicle: Klucel (hydroxypropylcellulose) (HPC) 94 % of control | dose: 50.0 mg/kg/injection, schedule: Q01DX001 (ip), vehicle: Klucel (hydroxypropylcellulose) (HPC) 94 % of control | [15] 96 % of control

CN(C)CCn1c2ccccc2c2ccccc21
inactive: [5] 92 % of control | [7] 92 % of control | [14] 95 % of control

CC1(/C=N\NC(=O)CCCC(=O)N/N=C/C2(C)CCC=CO2)CCC=CO1 (stereo unspecified)
inactive: [16] 92 % of control | [17] 97 % of control

O=c1c(N=Nc2ccc(Cl)cc2)c(O)n(-c2ccccc2)c(=S)n1-c1ccccc1
inactive: dose: 37.5 mg/kg/injection, schedule: Q01DX001 (ip), vehicle: other 94 % of control | dose: 75.0 mg/kg/injection, schedule: Q01DX001 (ip), vehicle: other 107 % of control | dose: 150.0 mg/kg/injection, schedule: Q01DX001 (ip), vehicle: other 96 % of control

CC(=O)OCC1OC(SSc2ccccc2)C(OC(C)=O)C(OC(C)=O)C1OC(C)=O (stereo unspecified)
inactive: [16] 98 % of control | dose: 200.0 mg/kg/injection, schedule: Q01DX001 (ip), vehicle: saline 89 % of control | [17] 89 % of control

COC(=O)c1nc(-c2ccc3c(n2)C(=O)C(N)=C(OC)C3=O)c(N)c(-c2ccc(OC)c(OC)c2O)c1C
inactive: dose: 0.5 mg/kg/injection, schedule: Q01DX015 (ip), vehicle: water 116 % of control | dose: 1.0 mg/kg/injection, schedule: Q01DX001 (ip), vehicle: water 110 % of control | dose: 1.0 mg/kg/injection, schedule: Q01DX015 (ip), vehicle: water 119 % of control | dose: 2.0 mg/kg/injection, schedule: Q01DX001 (ip), vehicle: water 109 % of control | dose: 2.0 mg/kg/injection, schedule: Q01DX015 (ip), vehicle: water 98 % of control | dose: 3.0 mg/kg/injection, schedule: Q01DX001 (ip), vehicle: carboxymethylcellulose (CMC) 104 % of control | dose: 6.0 mg/kg/injection, schedule: Q01DX001 (ip), vehicle: carboxymethylcellulose (CMC) 110 % of control | dose: 12.0 mg/kg/injection, schedule: Q01DX001 (ip), vehicle: carboxymethylcellulose (CMC) 105 % of control | dose: 24.0 mg/kg/injection, schedule: Q01DX001 (ip), vehicle: carboxymethylcellulose (CMC) 104 % of control | dose: 48.0 mg/kg/injection, schedule: Q01DX001 (ip), vehicle: carboxymethylcellulose (CMC) 105 % of control

COc1ccc(OC)c(/C=C/C(=O)n2cnc3c(N)ncnc32)c1
inactive: [5] 93 % of control | [7] 93 % of control | [14] 88 % of control

O=C(COc1ccc(Cl)cc1)Nc1cccc2ccccc12
inactive: dose: 100.0 mg/kg/injection, schedule: Q04DX002 (ip), vehicle: Klucel (hydroxypropylcellulose) (HPC) 87 % of control | dose: 200.0 mg/kg/injection, schedule: Q04DX002 (ip), vehicle: Klucel (hydroxypropylcellulose) (HPC) 93 % of control | dose: 400.0 mg/kg/injection, schedule: Q04DX002 (ip), vehicle: Klucel (hydroxypropylcellulose) (HPC) 101 % of control

COc1ccc(Br)cc1C1OC(=O)c2c(OC)c(OC)cc(O)c21 (stereo unspecified)
inactive: [15] 96 % of control | dose: 200.0 mg/kg/injection, schedule: Q01DX001 (ip), vehicle: Klucel (hydroxypropylcellulose) (HPC) 98 % of control | dose: 400.0 mg/kg/injection, schedule: Q01DX001 (ip), vehicle: Klucel (hydroxypropylcellulose) (HPC) 94 % of control

COC(=O)C(Cc1ccccc1)NC(=O)CNC(=O)OCc1ccccc1 (stereo not drawn) (Cbz-Gly-[ξF]-OMe)
inactive: [11] 106 % of control | [12] 101 % of control | [13] 106 % of control

NNC(=O)CCc1ccccc1O
inactive: [4] 93 % of control | [6] 91 % of control | [8] 93 % of control

Cc1ccc(NC(=S)N2CCCCC2)cc1C
inactive: [9] 92 % of control | [10] 93 % of control | dose: 400.0 mg/kg/injection, schedule: Q01DX009 (ip), vehicle: Klucel (hydroxypropylcellulose) (HPC) 101 % of control

N#CCCP(=O)(CCC#N)CCCCCCP(=O)(CCC#N)CCC#N
inactive: [4] 90 % of control | [6] 90 % of control | [8] 89 % of control

CCOC(=O)C(C/C=C/c1ccccc1)C(C)=O (stereo unspecified)
inactive: [1] 90 % of control | [2] 97 % of control | [3] 90 % of control

N#CCc1c(Cl)sc(Cl)c1CC#N
inactive: [5] 88 % of control | [7] 88 % of control
